In patent publication US9708312B2, “Dihydropyrimidinoisoquinolinones and pharmaceutical compositions thereof for the treatment of inflammatory disorders (GPR84 antagonists)” (GALAPAGOS NV, priority 2012, dated 2017):

Each molecule was assayed against T1, GPR84 (Homo sapiens, UniProt Q9NQS5) (assay: GPR84 [35S]GTPγS binding assay, HEPES buffer). Conditions: 3,3′ di indolylmethane at EC80, membranes from stable cell line over expressing GPR84.
T1 construct: expressed in transfected cells
Assay type: biochemical
Experimental: 1.1. Cell Based Assay: GTp-γ S Binding Assay.
The following assay can be used for determination of GPR84 activation.
The assay is performed in a 96 well plate where the following reagents are added. […] In a last step, 30 μL of a mixture consisting of membranes-GTPγS-SpA beads is added [mixture consists of 20 μg/well membranes derived from stable cell line over expressing GPR84 (membranes are pre-incubated with 0.1 μM GDP for 15 min at 4° C.), 0.1 nM [^35S]GTPγS (Perkin Elmer, NEG030) and 0.5 mg/well PVT-WGA SpA beads (Perkin Elmer, RPNQ0001)]. All components are diluted in assay buffer containing 20 mM HEPES pH 7.4; 5 mM MgCl2; 250 mM NaCl; 0.05% BSA; 75 ug/mL saponin Reactions are incubated for 90 min at room temperature followed by centrifugation at 2000 rpm during 15 min. Plates are read on a Topcount reader (Perkin Elmer) immediately after centrifugation (readout time, 1 min/well).

T1 sequence (Q9NQS5 whole entry): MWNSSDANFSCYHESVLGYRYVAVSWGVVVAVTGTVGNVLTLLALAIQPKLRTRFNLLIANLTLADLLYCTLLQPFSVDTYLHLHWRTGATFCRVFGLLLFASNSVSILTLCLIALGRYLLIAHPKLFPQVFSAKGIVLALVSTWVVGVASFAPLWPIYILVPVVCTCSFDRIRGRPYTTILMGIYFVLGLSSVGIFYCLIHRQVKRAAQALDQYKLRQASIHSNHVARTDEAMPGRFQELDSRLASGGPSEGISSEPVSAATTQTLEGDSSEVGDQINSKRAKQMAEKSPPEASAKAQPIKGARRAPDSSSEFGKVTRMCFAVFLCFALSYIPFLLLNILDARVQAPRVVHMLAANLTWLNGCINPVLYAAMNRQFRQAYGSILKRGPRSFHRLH

Row | SMILES | IC50 [nM]
1 | N#Cc1ccccc1-c1ccc2c(c1)CCn1c-2cc(OCC2CCCO2)nc1=O (stereo not shown) [compound 107, 2-[4-oxo-2-(tetrahydro-furan-2-ylmethoxy)-6,7-dihydro-4H-pyrimido[6,1-a]isoquinolin-9-yl]-benzonitrile] | 500 to 1000
2 | N#Cc1cccc(COc2ccc3c(c2)CCn2c-3cc(OCC3CCCO3)nc2=O)c1 (stereo not shown) [compound 19, 3-[4-oxo-2-(tetrahydro-furan-2-ylmethoxy)-6,7-dihydro-4H-pyrimido[6,1-a]isoquinolin-9-yloxymethyl]-benzonitrile] | 100 to 500
3 | O=c1nc(OCC2CCCO2)cc2n1CCc1cc(OCCc3ccccc3)ccc1-2 (stereo not shown) [compound 12, 9-phenethyloxy-2-(tetrahydro-furan-2-ylmethoxy)-6,7-dihydro-pyrimido[6,1-a]isoquinolin-4-one] | 100 to 500
4 | CC(O)(C#Cc1ccc2c(c1)CCn1c-2cc(OCC2COc3ncccc3O2)nc1=O)c1ccccc1 (stereo not shown) [compound 187, 2-(2,3-Dihydro-[1,4]dioxino[2,3-b]pyridin-2-ylmethoxy)-9-(3-hydroxy-3-phenyl-but-1-ynyl)-6,7-dihydro-pyrimido[6,1-a]isoquinolin-4-one] | 0.01 to 100
5 | O=c1nc(OCC2CCCO2)cc2n1CCc1cc(-c3ccccc3)ccc1-2 (stereo not shown) [compound 96, 9-phenyl-2-(tetrahydro-furan-2-ylmethoxy)-6,7-dihydro-pyrimido[6,1-a]isoquinolin-4-one] | 100 to 500
6 | N#Cc1ccc(COc2ccc3c(c2)CCn2c-3cc(OCC3CCCO3)nc2=O)cc1 (stereo not shown) [compound 17, 4-[4-oxo-2-(tetrahydro-furan-2-ylmethoxy)-6,7-dihydro-4H-pyrimido[6,1-a]isoquinolin-9-yloxymethyl]-benzonitrile] | 0.01 to 100
7 | O=c1nc(OCC2CCCO2)cc2n1CCc1cc(-c3cccnc3)ccc1-2 (stereo not shown) [compound 94, 9-pyridin-3-yl-2-(tetrahydro-furan-2-ylmethoxy)-6,7-dihydro-pyrimido[6,1-a]isoquinolin-4-one] | 500 to 1000
8 | O=c1nc(OCC2COc3ccccc3O2)cc2n1CCc1cc(OCCN3CCCCC3)ccc1-2 (stereo not shown) [compound 80, 2-(2,3-dihydro-benzo[1,4]dioxin-2-ylmethoxy)-9-(2-piperidin-1-yl-ethoxy)-6,7-dihydro-pyrimido[6,1-a]isoquinolin-4-one] | 100 to 500
9 | O=c1nc(OCC2CCCO2)cc2n1CCc1cc(OCc3noc(-c4ccccc4)n3)ccc1-2 (stereo not shown) [compound 88, 9-(5-phenyl-[1,2,4]oxadiazol-3-ylmethoxy)-2-(tetrahydro-furan-2-ylmethoxy)-6,7-dihydro-pyrimido[6,1-a]isoquinolin-4-one] | 0.01 to 100
10 | COc1ccc(-c2ccc3c(c2)CCn2c-3cc(OCC3CCCO3)nc2=O)cc1 (stereo not shown) [compound 101, 9-(4-methoxy-phenyl)-2-(tetrahydro-furan-2-ylmethoxy)-6,7-dihydro-pyrimido[6,1-a]isoquinolin-4-one] | 100 to 500
11 | CN1CCCC1CCOc1ccc2c(c1)CCn1c-2cc(OCC2COc3ncccc3O2)nc1=O (stereo not shown) [compound 92, 2-(2,3-dihydro-[1,4]dioxino[2,3-b]pyridin-2-ylmethoxy)-9-[2-(1-methyl-pyrrolidin-2-yl)-ethoxy]-6,7-dihydro-pyrimido[6,1-a]isoquinolin-4-one] | 100 to 500
12 | O=c1nc(OCC2CCCO2)cc2n1CCc1cc(OCCOc3ccc(Cl)cc3)ccc1-2 (stereo not shown) [compound 45, 9-[2-(4-chloro-phenoxy)-ethoxy]-2-(tetrahydro-furan-2-ylmethoxy)-6,7-dihydro-pyrimido[6,1-a]isoquinolin-4-one] | 0.01 to 100
13 | CN(C)c1ccc(-c2ccc3c(c2)CCn2c-3cc(OCC3CCCO3)nc2=O)cc1 (stereo not shown) [compound 105, 9-(4-dimethylamino-phenyl)-2-(tetrahydro-furan-2-ylmethoxy)-6,7-dihydro-pyrimido[6,1-a]isoquinolin-4-one] | 100 to 500
14 | O=c1nc(OCC2CCCO2)cc2n1CCc1cc(OCc3cccnc3)ccc1-2 (stereo not shown) [compound 8, 9-(pyridin-3-ylmethoxy)-2-(tetrahydro-furan-2-ylmethoxy)-6,7-dihydro-pyrimido[6,1-a]isoquinolin-4-one] | 100 to 500
15 | O=C(COc1ccc2c(c1)CCn1c-2cc(OCC2COc3ccccc3O2)nc1=O)NCc1ccccc1 (stereo not shown) [compound 78, N-benzyl-2-[2-(2,3-dihydro-benzo[1,4]dioxin-2-ylmethoxy)-4-oxo-6,7-dihydro-4H-pyrimido[6,1-a]isoquinolin-9-yloxy]-acetamide] | 0.01 to 100
16 | O=c1nc(OCC2COc3ncccc3O2)cc2n1CCc1cc(OCc3noc(C4CC4)n3)ccc1-2 (stereo not shown) [compound 156, 9-(5-cyclopropyl-[1,2,4]oxadiazol-3-ylmethoxy)-2-(2,3-dihydro-[1,4]dioxino[2,3-b]pyridin-2-ylmethoxy)-6,7-dihydro-pyrimido[6,1-a]isoquinolin-4-one] | 0.01 to 100
17 | N#Cc1cccc(-c2ccc3c(c2)CCn2c-3cc(OCC3CCCO3)nc2=O)c1 (stereo not shown) [compound 95, 3-[4-Oxo-2-(tetrahydro-furan-2-ylmethoxy)-6,7-dihydro-4H-pyrimido[6,1-a]isoquinolin-9-yl]-benzonitrile] | 100 to 500
18 | O=c1nc(OCC2COc3ccccc3O2)cc2n1CCc1cc(OCCCN3CCCCC3)ccc1-2 (stereo not shown) [compound 81, 2-(2,3-dihydro-benzo[1,4]dioxin-2-ylmethoxy)-9-(3-piperidin-1-yl-propoxy)-6,7-dihydro-pyrimido[6,1-a]isoquinolin-4-one] | 100 to 500
19 | N#CCCOCC#Cc1ccc2c(c1)CCn1c-2cc(OCC2COc3ncccc3O2)nc1=O (stereo not shown) [compound 170, 3-{3-[2-(2,3-dihydro-[1,4]dioxino[2,3-b]pyridin-2-ylmethoxy)-4-oxo-6,7-dihydro-4H-pyrimido[6,1-a]isoquinolin-9-yl]-prop-2-ynyloxy}-propionitrile] | 0.01 to 100
20 | CCCCOc1ccc2c(c1)CCn1c-2cc(OCC2CCCO2)nc1=O (stereo not shown) [compound 10, 9-butoxy-2-(tetrahydro-furan-2-ylmethoxy)-6,7-dihydro-pyrimido[6,1-a]isoquinolin-4-one] | 100 to 500
21 | O=C(COc1ccc2c(c1)CCn1c-2cc(OCC2COc3ccccc3O2)nc1=O)Nc1ccccc1 (stereo not shown) [compound 68, 2-[2-(2,3-dihydro-benzo[1,4]dioxin-2-ylmethoxy)-4-oxo-6,7-dihydro-4H-pyrimido[6,1-a]isoquinolin-9-yloxy]-N-phenyl-acetamide] | 0.01 to 100

More lines, now with the values ahead:

Row | IC50 [nM] | SMILES
22 | 0.01 to 100 | CCOc1ncccc1-c1ccc2c(c1)CCn1c-2cc(OCC2COc3ncccc3O2)nc1=O (stereo not shown) [compound 163, 2-(2,3-dihydro-[1,4]dioxino[2,3-b]pyridin-2-ylmethoxy)-9-(2-ethoxy-pyridin-3-yl)-6,7-dihydro-pyrimido[6,1-a]isoquinolin-4-one]
23 | 0.01 to 100 | N#Cc1ccc(-c2ccc3c(c2)CCn2c-3cc(OCC3COc4ncccc4O3)nc2=O)cn1 (stereo not shown) [compound 162, 5-[2-(2,3-dihydro-[1,4]dioxino[2,3-b]pyridin-2-ylmethoxy)-4-oxo-6,7-dihydro-pyrimido[6,1-a]isoquinolin-9-yl]-pyridine-2-carbonitrile]
24 | 0.01 to 100 | Cc1cc(COc2ccc3c(c2)CCn2c-3cc(OCC3COc4ncccc4O3)nc2=O)on1 (stereo not shown) [compound 159, 2-(2,3-dihydro-[1,4]dioxino[2,3-b]pyridin-2-ylmethoxy)-9-(3-methyl-isoxazol-5-ylmethoxy)-6,7-dihydro-pyrimido[6,1-a]isoquinolin-4-one]
25 | 0.01 to 100 | Cc1nc(COc2ccc3c(c2)CCn2c-3cc(OCC3COc4ncccc4O3)nc2=O)no1 (stereo not shown) [compound 154, 2-(2,3-dihydro-[1,4]dioxino[2,3-b]pyridin-2-ylmethoxy)-9-(5-methyl-[1,2,4]oxadiazol-3-ylmethoxy)-6,7-dihydro-pyrimido[6,1-a]isoquinolin-4-one]
26 | 0.01 to 100 | O=c1nc(OCC2COc3ncccc3O2)cc2n1CCc1cc(NCc3ncco3)ccc1-2 (stereo not shown) [compound 153, 2-(2,3-dihydro-[1,4]dioxino[2,3-b]pyridin-2-ylmethoxy)-9-[(oxazol-2-ylmethyl)-amino]-6,7-dihydro-pyrimido[6,1-a]isoquinolin-4-one]
27 | 0.01 to 100 | Cn1cc(-c2ccc3c(c2)CCn2c-3cc(OCC3COc4ncccc4O3)nc2=O)cn1 (stereo not shown) [compound 149, 2-(2,3-dihydro-[1,4]dioxino[2,3-b]pyridin-2-ylmethoxy)-9-(1-methyl-1H-pyrazol-4-yl)-6,7-dihydro-pyrimido[6,1-a]isoquinolin-4-one]
28 | 100 to 500 | N#CCNc1ccc2c(c1)CCn1c-2cc(OCC2COc3ncccc3O2)nc1=O (stereo not shown) [compound 151, [2-(2,3-dihydro-[1,4]dioxino[2,3-b]pyridin-2-ylmethoxy)-4-oxo-6,7-dihydro-4H-pyrimido[6,1-a]isoquinolin-9-ylamino]-acetonitrile]
29 | 0.01 to 100 | O=c1nc(OCC2COc3ncccc3O2)cc2n1CCc1cc(C#CCNc3ccccc3)ccc1-2 (stereo not shown) [compound 194, 2-(2,3-dihydro-[1,4]dioxino[2,3-b]pyridin-2-ylmethoxy)-9-(3-phenylamino-prop-1-ynyl)-6,7-dihydro-pyrimido[6,1-a]isoquinolin-4-one]
30 | 0.01 to 100 | N#Cc1cccc(-c2ccc3c(c2)CCn2c-3cc(OCC3COc4ncccc4O3)nc2=O)c1 (stereo not shown) [compound 98, 3-[2-(2,3-dihydro-[1,4]dioxino[2,3-b]pyridin-2-ylmethoxy)-4-oxo-6,7-dihydro-4H-pyrimido[6,1-a]isoquinolin-9-yl]-benzonitrile]
31 | 0.01 to 100 | O=c1nc(OCC2COc3ncccc3O2)cc2n1CCc1ccccc1-2 (stereo not shown) [compound 146, 2-(2,3-dihydro-[1,4]dioxino[2,3-b]pyridin-2-ylmethoxy)-6,7-dihydro-pyrimido[6,1-a]isoquinolin-4-one]
